Values quoted from earlier work as cited in patent US9950023B1, “Composition for the treatment of acne” (Parham Tabibian, MD, Inc., priority 2014, dated 2018).

Assays:
[1] = tested on: biofilm-associated P. acnes; conditions: in vitro; concentrations as given in the label
[2] = tested on: interleukin-8 (IL-8); conditions: dose-dependent manner
[3] = tested on: P. acnes biofilm; conditions: clinical tests, trans Resveratrol extracts

For `Oc1cc(Cl)ccc1Oc1ccc(Cl)cc1Cl` [0.1% triclosan, triclosan], which reducing biofilm mass [1] is on record?
Its reducing biofilm mass is “effective”.

With `NC(=O)c1cccnc1` [Nicotinamide] as the compound, how does the “interleukin-8 (IL-8) production” value [2] read?
Its value is “decreasing interleukin-8 (IL-8) production in a dose-dependent manner”.

For `Oc1ccc(C=Cc2cc(O)cc(O)c2)cc1` [Resveratrol], which “inhibition of P. acnes biofilm formation” value [3] is on record?
Its value is 99.2%.
